Experimental findings from patent US20190106460A1, “BINDING INHIBITORS OF THE BETA. TRANSDUCIN REPEAT-CONTAINING PROTEIN” (priority 2011, published 2019) are described below.

For the assay, the target named is βTrCP (Homo sapiens, UniProt Q9Y297). The assay is described as follows: Fluorescence polarisation (FP) binding assay with fluorescein-tagged IκB peptide. Conditions: Tables 1, 3, 7, 8, 10 nM fluorescein-tagged IκB peptide.

Where two headings read alike, the source gives them in different places. Non-standard residues stand in square brackets, D forms with d. Residues, ends and D or L forms follow the SMILES beside them. No end group written: not given here.

Chain of βTrCP (Q9Y297 whole entry): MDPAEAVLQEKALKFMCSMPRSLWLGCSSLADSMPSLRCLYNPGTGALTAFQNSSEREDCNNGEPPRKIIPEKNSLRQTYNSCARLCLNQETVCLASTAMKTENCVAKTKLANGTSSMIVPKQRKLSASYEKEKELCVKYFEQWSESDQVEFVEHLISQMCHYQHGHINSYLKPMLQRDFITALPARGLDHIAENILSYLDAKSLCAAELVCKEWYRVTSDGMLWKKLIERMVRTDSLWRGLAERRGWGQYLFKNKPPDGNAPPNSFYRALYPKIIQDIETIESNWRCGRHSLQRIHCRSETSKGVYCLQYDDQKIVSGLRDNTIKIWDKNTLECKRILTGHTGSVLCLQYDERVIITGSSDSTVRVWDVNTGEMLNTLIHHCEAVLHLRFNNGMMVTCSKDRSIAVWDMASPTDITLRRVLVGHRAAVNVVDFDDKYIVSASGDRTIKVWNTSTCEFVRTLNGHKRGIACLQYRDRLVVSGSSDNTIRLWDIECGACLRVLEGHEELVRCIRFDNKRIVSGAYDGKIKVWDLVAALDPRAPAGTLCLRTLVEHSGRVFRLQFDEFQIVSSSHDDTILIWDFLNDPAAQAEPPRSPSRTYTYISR
Chain of βTrCP (P63208 whole entry partner): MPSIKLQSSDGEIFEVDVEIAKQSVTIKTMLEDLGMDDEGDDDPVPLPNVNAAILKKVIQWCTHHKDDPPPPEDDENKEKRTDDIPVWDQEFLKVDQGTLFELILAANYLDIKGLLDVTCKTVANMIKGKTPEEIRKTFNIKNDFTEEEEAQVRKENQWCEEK

Regarding `CC[C@H](C)[C@H](NC(=O)CNC(=O)[C@H](C)NC(=O)[C@H](N)CC(=O)O)C(=O)N[C@@H](Cc1ccccc1)C(=O)N[C@@H](CC(=O)O)C(N)=O` [dAGIFD-NH2] (H-[dD]AGIFD-NH2), the IC50 (read-out: FP Assay IC50/μM) is more than 100 µM. Same read-out and setting: the value for `CC[C@H](C)[C@H](NC(=O)CNC(=O)[C@H](C)NC(=O)[C@H](N)CC(=O)O)C(=O)N[C@@H](Cc1ccccc1)C(=O)N[C@@H](CCCNC(=N)N)C(N)=O` [dAGIFR-NH2] (H-[dD]AGIFR-NH2) was more than 100 µM. Regarding `CC[C@H](C)[C@H](NC(=O)CNC(=O)[C@H](CCC(=O)O)NC(=O)[C@H](N)CC(=O)O)C(=O)N[C@@H](Cc1ccccc1)C(=O)N[C@@H](CC(=O)O)C(N)=O` [dEGIFD-NH2] (H-[dD]EGIFD-NH2), the IC50 (read-out: FP Assay IC50/μM) is more than 100 µM. On to `CC[C@H](C)[C@H](NC(=O)CNC(=O)[C@H](CC(N)=O)NC(=O)[C@H](N)CC(=O)O)C(=O)N[C@@H](Cc1ccccc1)C(=O)N[C@@H](CCCNC(=N)N)C(N)=O` [dNGIFR-NH2] (H-[dD]NGIFR-NH2), for which the IC50 (read-out: FP Assay IC50/μM) is more than 100 µM. For ADAGIHS-NH2 [ADAGIHS-NH2], the IC50 (read-out: FP Assay IC50/μM) was more than 100 µM. As to DAGFFE-NH2 [DAGFFE-NH2], the IC50 (read-out: FP Assay IC50/μM) is more than 100 µM. Take DAGIFH-NH2 [DAGIFH-NH2]: the IC50 (read-out: FP Assay IC50/μM) is more than 100 µM.

DAGIHS-NH2 [DAGIHS-NH2]: the IC50 (read-out: FP Assay IC50/μM) is more than 100 µM. For the molecule DAGNFE-NH2 [DAGNFE-NH2], the IC50 (read-out: FP Assay IC50/μM) was more than 100 µM. For DDASGIHS-NH2 [DDASGIHS-NH2], under “read-out: FP Assay IC50/μM”, the IC50 was more than 100 µM.

For EAGIFE-NH2 [EAGIFE-NH2], the IC50 (read-out: FP Assay IC50/μM) is more than 100 µM. On to GDAGIHS-NH2 [GDAGIHS-NH2], for which the IC50 (read-out: FP Assay IC50/μM) was more than 100 µM.

On to H-DEGFFE-NH2 [DEGFFE-NH2], for which, where the note is “FP Assay IC50/μM”, the IC50 was determined as 43.6 µM. As for LDASGIHS-NH2 [LDASGIHS-NH2], under “read-out: FP Assay IC50/μM”, the IC50 was more than 100 µM. Take VDAGIHS-NH2 [VDAGIHS-NH2]: where the note is “read-out: FP Assay IC50/μM”, the IC50 is more than 100 µM.
